From US5482970A (priority 1993, dated 1996)

Key:
[1] = In vitro skin permeation and metabolism, two-compartment diffusion cell (Example 6); assay type: in vitro ADME, hairless mouse (HRS/J strain); details: for Transdermal Flux Q1, Inocoterone: metabolite from applied inocoterone acetate; for metabolised at 5 h: mouse, of total permeated, read-out: % Metabolite
Text: (§1) The freshly excised hairless mouse skin was used in the two-compartment diffusion cell method of Chlen et at., Drug Development and Industrial Pharmacy, 11, […] (1985). The hairless mouse (HRS/J strain) was sacrificed just prior to the experiment by cervical dislocation. A square section of the abdominal skin was surgically removed and mounted between two side-by-side half cells; the exposed area of the skin being approximately 0.64 cm^2. A 1-10% weight/volume (w/v) solution of inocoterone acetate and vehicle was added to the donor compartment and a 40% w/v polyethylene glycol 400/normal saline solution was added to the receptor compartment. Simultaneous skin permeation and biotransformation studies Were conducted in a thermostated diffusion cell apparatus at 37° C. At appropriate intervals samples were withdrawn from the receptor compartment and analyzed for inocoterone acetate and its metabolite, inocoterone, by high pressure liquid chromatography. […] Each experiment was carried out in at least triplicate. This method was used in Examples 3 to 6.
Compositions of 10% w/v of inocoterone acetate in vehicle solutions were prepared by dissolving 1 g of the medicament in 10 ml of a mixture of isopropyl myristate and 95% ethanol in the following volume percent ratios: 100:0, 95:5, 70:30, 60:40, 50:50, 40:60, 30:70, 5:95 and 0:100, respectively. The in vitro skin permeation and metabolism rates were measured using the method described under the in vitro skin permeation test method. The results of these measurements, in terms of the cumulative mount of unchanged medicament and its metabolite permeated in μmoles per square centimeter with time, over 5 hours are given in FIG. 1.
In this example, the results of the use of ethanol as the polar organic solvent in combination with various fatty acid esters for the simultaneous skin permeation and metabolism of inocoterone acetate solution are shown.

[2] = In vitro skin permeation and metabolism of Carbopol 940 gels, Franz diffusion cell (Example 13); assay type: in vitro ADME, hairless mouse; details: for Transdermal Flux Q1, Inocoterone: metabolite; for metabolised at 5 h: mouse, read-out: % Metabolite
Procedure: For the evaluation of pharmaceutical compositions of the present invention, the freshly excised hairless mouse skin was used in the diffusion cell method of Franz, Current Problems in Dermatology, 7, 58-68 (1978), in a vertical position, the exposed area of the skin being approximately 1.8 cm^2. The pharmaceutical formulation of known concentration in vehicle was added to the upper compartment of the cell, which was exposed to the stratum corneum side of the skin, and a 40% polyethylene glycol 400/normal saline solution was placed in the lower compartment The penetration and metabolism rates were studied in a thermostated diffusion cell at 37° C. using the analytical method described above. Each experiment was carried out in at least triplicate. This method was used in Examples 7 and 13.
In this example the simultaneous skin permeation and metabolism rates of inocoterone acetate incorporated in the Carbopol 940 gels formulated using the compositions described in Example 7 are shown.

prostate = assay: In vivo antiandrogen activity test, rat: prostate (systemic effect)
[3] = Hydrolysis in blank receptor solution; assay type: physicochemical; details: 40% w/v polyethylene glycol 400/normal saline, 37° C., time course of permeation experiment
Text: as §1

rat sebaceous gland = assay: In vivo antiandrogen activity test, rat: volume density of smooth endoplasmic reticulum of the sebaceous gland
[4] = vehicle 10% Butyl laurate-90% Ethanol
[5] = vehicle 10% Ethyl laurate-90% Ethanol
[6] = vehicle 10% Ethyl oleate-90% Ethanol
[7] = vehicle 10% Isopropyl palmitate-90% Ethanol
[8] = vehicle 10% Propyl laurate-90% Ethanol
[9] = Carbopol 940 gel: inocoterone acetate 10.0, butyl laurate 6.0, ethanol 50.0% w/w
[10] = Carbopol 940 gel: inocoterone acetate 10.0, ethyl laurate 6.0, ethanol 50.0% w/w
[11] = Carbopol 940 gel: inocoterone acetate 10.0, isopropyl myristate 6.0, ethanol 50.0% w/w

Structure (SMILES): CCC1=C2CC[C@]3(C)[C@@H](O)CC[C@H]3[C@@H]2CCC1=O [Inocoterone, 6-ethyl-3αβ-methyl-1,2,3,3a,4,5,8,9,9a,9b-decahydro-7H-benz(e)inden-3-ol-7-one]
- Transdermal Flux Q1, Inocoterone [1, 4]: 54.5 × 10^2 μmoles/cm^2 /5 hrs
- Transdermal Flux Q1, Inocoterone [1, 5]: 58.3 × 10^2 μmoles/cm^2 /5 hrs
- Transdermal Flux Q1, Inocoterone [1, 6]: 36.6 × 10^2 μmoles/cm^2 /5 hrs
- Transdermal Flux Q1, Inocoterone [1, 7]: 27.5 × 10^2 μmoles/cm^2 /5 hrs
- Transdermal Flux Q1, Inocoterone [1, 8]: 60.8 × 10^2 μmoles/cm^2 /5 hrs
- Transdermal Flux Q1, Inocoterone ([1]; vehicle Ethanol): 1.1 × 10^2 μmoles/cm^2 /5 hrs
- Transdermal Flux Q1, Inocoterone [2, 9]: 66.2 × 10^2 μmoles/cm^2 /5 hours
- Transdermal Flux Q1, Inocoterone [2, 10]: 52.7 × 10^2 μmoles/cm^2 /5 hours
- Transdermal Flux Q1, Inocoterone [2, 11]: 62.8 × 10^2 μmoles/cm^2 /5 hours

Structure (SMILES): CCC1=C2CC[C@]3(C)[C@@H](OC(C)=O)CC[C@H]3[C@@H]2CCC1=O [Inocoterone acetate, 3β-acetoxy-6-ethyl-3αβ-methyl-1,2,3,3a, 4,5,8,9,9a,9b-decahydro-7H-benz(e)inden-7-one]
- effect on prostate weight (prostate; intact and castrated testosterone propionate-treated rats, topical, any dose (0.25 to 25 mg/rat/day)): no significant effect on prostate weight at any dose
- systemic antiandrogenic effect as evidenced by changes in the prostate (prostate; isopropyl myristate-ethanol mixture, topical 0.5 mg/cm^2/day, 5 days, testosterone propionate-treated castrated rats): resulted in a systemic anfiandrogenic effect
- hydrolysis in the blank receptor solution [3]: No significant hydrolysis
- inhibition of testosterone-induced increase in volume density of smooth endoplasmic reticulum vesicles in intermediate cells of sebaceous gland (rat sebaceous gland; 40% isopropyl myristate-60% ethanol, 0.5 mg/cm^2/day, 5 days, 5 cm^2, testosterone propionate-treated castrated rats): completely inhibited
- inhibition of the effects of testosterone on the sebaceous gland (rat sebaceous gland; ethanol vehicle, 0.5 mg/cm^2/day, 5 days, 5 cm^2, testosterone propionate-treated castrated rats): 60%
- volume density of smooth endoplasmic reticulum (SER) (rat sebaceous gland; intact rats and castrated rats stimulated with testosterone propionate, topical, 0.25 to 25 mg/rat/day, 1 to 3 weeks): dose related reduction in volume density of SER
- efficacy in isopropyl myristate-ethanol mixture (rat sebaceous gland; isopropyl myristate-ethanol mixture compared with ethanol): greater efficacy
- transcutaneous penetration ([1]; isopropyl myristate-ethanol mixture, Example 3): increased transcutaneous penetration
- metabolised at 5 h [1, 4]: 57.7%
- metabolised at 5 h [1, 5]: 67.5%
- metabolised at 5 h [1, 6]: 66.4%
- metabolised at 5 h [1, 7]: 74.5%
- metabolised at 5 h [1, 8]: 70.2%
- metabolised at 5 h ([1]; vehicle Ethanol): 100%
- Transdermal Flux Q1, Inocoterone Acetate [1, 4]: 39.9 × 10^2 μmoles/cm^2 /5 hrs
- Transdermal Flux Q1, Total Inocoterone [1, 4]: 94.4 × 10^2 μmoles/cm^2 /5 hrs
- Transdermal Flux Q1, Inocoterone Acetate [1, 5]: 28.1 × 10^2 μmoles/cm^2 /5 hrs
- Transdermal Flux Q1, Total Inocoterone [1, 5]: 86.4 × 10^2 μmoles/cm^2 /5 hrs
- Transdermal Flux Q1, Inocoterone Acetate [1, 6]: 18.5 × 10^2 μmoles/cm^2 /5 hrs
- Transdermal Flux Q1, Total Inocoterone [1, 6]: 55.1 × 10^2 μmoles/cm^2 /5 hrs
- Transdermal Flux Q1, Inocoterone Acetate [1, 7]: 9.4 × 10^2 μmoles/cm^2 /5 hrs
- Transdermal Flux Q1, Total Inocoterone [1, 7]: 36.9 × 10^2 μmoles/cm^2 /5 hrs
- Transdermal Flux Q1, Inocoterone Acetate [1, 8]: 25.8 × 10^2 μmoles/cm^2 /5 hrs
- Transdermal Flux Q1, Total Inocoterone [1, 8]: 86.6 × 10^2 μmoles/cm^2 /5 hrs
- Transdermal Flux Q1, Inocoterone Acetate ([1]; vehicle Ethanol): 0 × 10^2 μmoles/cm^2 /5 hrs
- Transdermal Flux Q1, Total Inocoterone ([1]; vehicle Ethanol): 1.1 × 10^2 μmoles/cm^2 /5 hrs
- Transdermal Flux Q1, Inocoterone Acetate [2, 9]: 45.2 × 10^2 μmoles/cm^2 /5 hours
- Transdermal Flux Q1, Total Inocoterone [2, 9]: 111.4 × 10^2 μmoles/cm^2 /5 hours
- Transdermal Flux Q1, Inocoterone Acetate [2, 10]: 38.4 × 10^2 μmoles/cm^2 /5 hours
- Transdermal Flux Q1, Total Inocoterone [2, 10]: 91.1 × 10^2 μmoles/cm^2 /5 hours
- Transdermal Flux Q1, Inocoterone Acetate [2, 11]: 36.2 × 10^2 μmoles/cm^2 /5 hours
- Transdermal Flux Q1, Total Inocoterone [2, 11]: 99.0 × 10^2 μmoles/cm^2 /5 hours
- metabolised at 5 h [2, 9]: 59.4%
- metabolised at 5 h [2, 10]: 57.8%
- metabolised at 5 h [2, 11]: 63.4%
